Holding throughout (assay): cells
The test system of test [1] is HCT-116. It is filed as functional, cell-based. The settings on record: Homo sapiens, HCT-116, 72 h.
Description: Antiproliferative activity against human HCT116 cells assessed as inhibition of cell growth incubated for 72 hrs by CCK-8 assay
For test [2], the system named is HCT-116. It is filed as functional. Conditions: Homo sapiens, time 72 hrs, read-out: GI.
Another test relates to HeLa. In kind it is functional, cell-based. Conditions: Homo sapiens, 72 h.
The test system of another test is A-375. In kind it is functional, cell-based. The settings on record: Homo sapiens, A-375, 72 h.
Test [3] concerns HCT-116. It is filed as functional. The settings on record: Homo sapiens, time 72 hrs, read-out: GI. The source holds these as a separate data set.
For test [4], the system named is NCI-H460. In kind it is functional. Conditions: Homo sapiens, time 72 hrs, read-out: GI.
The subject of test [5] is NCI-H460. It is filed as functional. The settings on record: Homo sapiens, time 72 hrs, read-out: GI. This is another data set of the same source.
A further test concerns SMMC-7721. It is filed as functional, cell-based. The settings on record: Homo sapiens, SMMC-7721, 72 h.
Test [6] relates to NCI-H460. In kind it is functional, cell-based. Conditions: Homo sapiens, NCI-H460, 72 h.
Description: Antiproliferative activity against human H460 cells assessed as inhibition of cell growth incubated for 72 hrs by CCK-8 assay

Here are results for 25 molecules from ChEMBL document CHEMBL4680185, “Discovery of novel cyclin-dependent kinase (CDK) and histone deacetylase (HDAC) dual inhibitors with potent in vitro and in vivo anticancer activity” (Eur J Med Chem, 2020).

Usually IC50 stands for the concentration that gives 50% inhibition. Higher therefore signals lower potency.

Description for A-375: Antiproliferative activity against human A375 cells assessed as inhibition of cell growth incubated for 72 hrs by CCK-8 assay
Description for HeLa: Antiproliferative activity against human Hela cells assessed as inhibition of cell growth incubated for 72 hrs by CCK-8 assay
Description for SMMC-7721: Antiproliferative activity against human SMMC7721 cells assessed as inhibition of cell growth incubated for 72 hrs by CCK-8 assay

Consider `Nc1ccccc1NC(=O)c1ccc(CNC(=O)c2n[nH]cc2NC(=O)c2c(F)cccc2F)cc1`, for which the IC50 in the test with HCT-116 [1] turned out to be 1.13 µM; in the test on HeLa, 4.48 µM; in the test with A-375, 1.7 µM; in the test on SMMC-7721, 15.2 µM; in the test with NCI-H460 [6], 7.79 µM. In addition, the inhibition of growth at 2 µM with HCT-116 [2] is 73.1%; in the test with NCI-H460 [4], 13.9%. The inhibition of growth at 8 µM was found to be 79.1% in the test on HCT-116 [3] and 80.5% with NCI-H460 [5].
In the case of `Nc1ccccc1NC(=O)c1ccc(CNC(=O)c2n[nH]cc2NC(=O)c2ccccc2F)cc1`, the IC50 was 4.8 µM in the test on HCT-116 [1]; 3.44 µM in the test with HeLa; 2.27 µM in the test on A-375; 6.85 µM with SMMC-7721; 9.99 µM in the test on NCI-H460 [6]. Further, the inhibition of growth at 2 µM in the test on HCT-116 [2] was 39.8%; in the test with NCI-H460 [4], 7.25%. For the same molecule, the results for the inhibition of growth at 8 µM with HCT-116 [3] and in the test on NCI-H460 [5] were 81.2% and 57.6%, respectively.
Consider `Nc1ccccc1NC(=O)Cc1ccc(NC(=O)c2n[nH]cc2NC(=O)c2ccccc2F)cc1`, for which the inhibition of growth at 2 µM with HCT-116 [2] was 16.5%; in the test with NCI-H460 [4] it was 6.06%. The figures for the inhibition of growth at 8 µM in the test with HCT-116 [3] and with NCI-H460 [5] were 20.4% and 23.4%, respectively.
On to `O=C(Cc1ccc(NC(=O)c2n[nH]cc2NC(=O)c2ccccc2)cc1)NO`, for which the inhibition of growth at 2 µM was determined as 9.56% in the test with HCT-116 [2] and 11.8% with NCI-H460 [4]. Also, the inhibition of growth at 8 µM in the test with HCT-116 [3] was 14.2%; in the test on NCI-H460 [5], 23.1%.
For `Nc1ccccc1NC(=O)Cc1ccc(NC(=O)c2n[nH]cc2NC(=O)c2ccccc2)cc1`, the figures for the inhibition of growth at 2 µM in the test with HCT-116 [2] and with NCI-H460 [4] were 60% and 0.37%, respectively. For the same molecule, the figures for the inhibition of growth at 8 µM with HCT-116 [3] and with NCI-H460 [5] were 69.2% and 8.93%, respectively.
The corresponding values for `O=C(CCCCCNC(=O)c1n[nH]cc1NC(=O)c1c(Cl)cccc1Cl)NO` are 3.02%, 15.1%, 4.66% and 21.3%.
For the molecule `COc1ccccc1C(=O)Nc1c[nH]nc1C(=O)NCc1ccc(C(=O)NO)cc1`, the inhibition of growth at 2 µM in the test with HCT-116 [2] is 43.8%; in the test with NCI-H460 [4], 16%. In addition, the values for the inhibition of growth at 8 µM with HCT-116 [3] and with NCI-H460 [5] were 68.8% and 45.6%, respectively.
On to `O=C(CCCCCNC(=O)c1n[nH]cc1NC(=O)c1c(F)cccc1F)NO`, for which the inhibition of growth at 2 µM in the test with HCT-116 [2] amounted to 4.87%; in the test with NCI-H460 [4], 22.9%. Also, the values for the inhibition of growth at 8 µM with HCT-116 [3] and in the test on NCI-H460 [5] were 59.4% and 28.8%, respectively.
The matching figures for `O=C(CCCCCCNC(=O)c1n[nH]cc1NC(=O)c1c(F)cccc1Cl)NO`: 10%, 0.88%, 15.7% and 28.7%.
`Nc1ccccc1NC(=O)c1ccc(CNC(=O)c2n[nH]cc2NC(=O)c2c(F)cccc2Cl)cc1`: the IC50 is 0.7 µM in the test with HCT-116 [1]; 3.27 µM in the test with HeLa; 1.2 µM in the test on A-375; 16.3 µM in the test on SMMC-7721; 3.63 µM in the test on NCI-H460 [6]. The inhibition of growth at 2 µM in the test on HCT-116 [2] came out at 78.7%; with NCI-H460 [4] it was 50.1%. Besides, the inhibition of growth at 8 µM in the test with HCT-116 [3] was found to be 83.8%; in the test on NCI-H460 [5], 75%.
Take `O=C(Cc1ccc(NC(=O)c2n[nH]cc2NC(=O)c2c(Cl)cccc2Cl)cc1)NO`: the IC50 with HCT-116 [1] was 2.4 µM; in the test with HeLa, 7.15 µM; with A-375, 4.61 µM; with SMMC-7721, 12.3 µM; in the test with NCI-H460 [6], 6.88 µM. In addition, the inhibition of growth at 2 µM in the test with HCT-116 [2] was 62.1%; in the test on NCI-H460 [4], 10.5%. Further, the inhibition of growth at 8 µM with HCT-116 [3] was found to be 75.8%; in the test on NCI-H460 [5], 75.1%.
`O=C(Cc1ccc(NC(=O)c2n[nH]cc2NC(=O)c2ccccc2Cl)cc1)NO`: the inhibition of growth at 2 µM with HCT-116 [2] amounted to 0.84%; in the test on NCI-H460 [4], 9.04%. Besides, the inhibition of growth at 8 µM with HCT-116 [3] came out at 4.52%; in the test on NCI-H460 [5] it was 26.6%.
As for `O=C(NO)c1ccc(CNC(=O)c2n[nH]cc2NC(=O)c2c(F)cccc2Cl)cc1`, the inhibition of growth at 8 µM in the test with HCT-116 [3] worked out at 59.3%; in the test on NCI-H460 [5], 27.7%.
As for `O=C(Cc1ccc(NC(=O)c2n[nH]cc2NC(=O)c2c(F)cccc2Cl)cc1)NO`, the inhibition of growth at 2 µM in the test on HCT-116 [2] amounted to 21.7%; in the test with NCI-H460 [4], 12.5%. The inhibition of growth at 8 µM was determined as 44.9% in the test on HCT-116 [3] and 37% in the test with NCI-H460 [5].
On to `Nc1ccccc1NC(=O)Cc1ccc(NC(=O)c2n[nH]cc2NC(=O)c2ccccc2Cl)cc1`, for which the inhibition of growth at 2 µM is 29.2% in the test on HCT-116 [2] and 3.08% in the test on NCI-H460 [4]. Besides, the inhibition of growth at 8 µM with HCT-116 [3] worked out at 52%; with NCI-H460 [5], 27.8%.
The corresponding values for `O=C(NO)c1ccc(CNC(=O)c2n[nH]cc2NC(=O)c2ccccc2)cc1` are 29.4%, 12%, 61.7% and 31.6%.
The matching figures for `O=C(Cc1ccc(NC(=O)c2n[nH]cc2NC(=O)c2ccccc2F)cc1)NO`: 1.04%, 9.5%, 14.3% and 21.4%.
In the case of `COc1ccccc1C(=O)Nc1c[nH]nc1C(=O)Nc1ccc(CC(=O)NO)cc1`, the values for the inhibition of growth at 2 µM with HCT-116 [2] and with NCI-H460 [4] were 9.38% and 1.58%, respectively. Besides, the inhibition of growth at 8 µM is 24.5% in the test with HCT-116 [3] and 24.2% in the test on NCI-H460 [5].
As to `O=C(CCCCCCNC(=O)c1n[nH]cc1NC(=O)c1c(F)cccc1F)NO`, the inhibition of growth at 2 µM came to 12.1% in the test on HCT-116 [2] and 3.57% in the test on NCI-H460 [4]. Moreover, the figures for the inhibition of growth at 8 µM in the test with HCT-116 [3] and with NCI-H460 [5] were 13.8% and 6.84%, respectively.
On to `O=C(CCCCNC(=O)c1n[nH]cc1NC(=O)c1c(F)cccc1F)NO`, for which the inhibition of growth at 2 µM in the test on HCT-116 [2] came out at 5.76%; in the test with NCI-H460 [4], 0.4%. Moreover, the inhibition of growth at 8 µM with HCT-116 [3] turned out to be 14.9%; in the test on NCI-H460 [5], 15.8%.
With `O=C(CCCCCCNC(=O)c1n[nH]cc1NC(=O)c1c(Cl)cccc1Cl)NO`, the inhibition of growth at 2 µM with HCT-116 [2] came to 1.07%; in the test with NCI-H460 [4], 17%. For the same molecule, the inhibition of growth at 8 µM turned out to be 20.1% in the test with HCT-116 [3] and 17.9% with NCI-H460 [5].
As for `COc1ccccc1C(=O)Nc1c[nH]nc1C(=O)Nc1ccc(CC(=O)Nc2ccccc2N)cc1`, the inhibition of growth at 2 µM with HCT-116 [2] stood at 13.6%; in the test on NCI-H460 [4], 3.12%. Further, the inhibition of growth at 8 µM with HCT-116 [3] stood at 30.5%; with NCI-H460 [5], 26.8%.
The matching figures for `O=C(NO)c1ccc(CNC(=O)c2n[nH]cc2NC(=O)c2c(F)cccc2F)cc1`: 25%, 0.46%, 64.5% and 7.33%.
The matching figures for `O=C(CCCNC(=O)c1n[nH]cc1NC(=O)c1c(F)cccc1F)NO`: 0.91%, 13%, 6.54% and 25.3%.
`O=C(Cc1ccc(NC(=O)c2n[nH]cc2NC(=O)c2c(F)cccc2F)cc1)NO`: the inhibition of growth at 2 µM was determined as 29.9% in the test with HCT-116 [2] and 0.04% in the test with NCI-H460 [4]. Also, the inhibition of growth at 8 µM with HCT-116 [3] came out at 25.6%; in the test with NCI-H460 [5], 30.2%.
